Source: patent US10881656B2, “HIF inhibitors and use thereof” (The General Hospital Corporation, priority 2008, dated 2021)
Values joined by “and” are separate entries in the source; they are usually repeats but may differ in a detail not shown here. Identical values can stand only once.

Tests used:
HIF-1a = assay: Western blot for HIF-1a in hypoxic CWR22R and Hep3B cells; type: cell-based, human; conditions: hypoxia
Procedure: The consensus sequence of the loop and the mandatory 5′ cytosine bulge are highlighted with light blue circles. […] Duplicate plates of 786-O derived lines expressing the putative wild-type or mutant HIF-1a IRE were cultured in the presence of compound as described for FIG. 1, with the exception that one set was placed at 1% oxygen for 24 hours following the first day's medium-change. Cells were treated with M, medium only; D, DMSO; or compounds, as indicated at the following concentrations: 40, 40 μM; 41, 30 μM; 76, 10 μM; 77, 5 μM. […] CWR22R or Hep3B cells were treated with compound and subjected to hypoxia as described above. B-Actin is shown for loading control. Cells were treated with M, medium only; D, DMSO; or compounds, as indicated at the following concentrations: 40, 40 μM; 41, 30 μM; 76, 20 μM; 77, 7.5 μM.
Hypoxia stabilized HIF-2a in VHL-reconstituted WT8 cells, but treatment with compounds diminished hypoxia-induced HIF-2a expression (FIG. 3C).

HUVEC = HUVEC proliferation assay; type: cell-based, human; conditions: conditioned supernatant from compound-treated 786-O cells
Procedure: HUVEC cells were plated in a 96 well plate in HUVEC minimal medium (Chembrex, EBM-2). 24 hours later, medium was replaced with a 1:4 mix of tissue culture medium that had been conditioned from compound or DMSO-only treated 786-O cells and HUVEC minimal medium. HUVEC proliferation was quantified by a colorimetric proliferation assay (WST-1, Roche, Germany).
Conditioned tissue culture medium from compound-treated 786-O cells was tested for its ability to induce human umbilical vein endothelial cell (HUVEC) proliferation.

IRP1 [1] = molecular target: IRP1 (Homo sapiens, UniProt P21399); assay: HIF-2a activity (EGLN3 qRT-PCR) in IRP knock down lines; conditions: 786-O IRP knock down lines
IRP1 (Homo sapiens, UniProt P21399), sequence (P21399 whole entry): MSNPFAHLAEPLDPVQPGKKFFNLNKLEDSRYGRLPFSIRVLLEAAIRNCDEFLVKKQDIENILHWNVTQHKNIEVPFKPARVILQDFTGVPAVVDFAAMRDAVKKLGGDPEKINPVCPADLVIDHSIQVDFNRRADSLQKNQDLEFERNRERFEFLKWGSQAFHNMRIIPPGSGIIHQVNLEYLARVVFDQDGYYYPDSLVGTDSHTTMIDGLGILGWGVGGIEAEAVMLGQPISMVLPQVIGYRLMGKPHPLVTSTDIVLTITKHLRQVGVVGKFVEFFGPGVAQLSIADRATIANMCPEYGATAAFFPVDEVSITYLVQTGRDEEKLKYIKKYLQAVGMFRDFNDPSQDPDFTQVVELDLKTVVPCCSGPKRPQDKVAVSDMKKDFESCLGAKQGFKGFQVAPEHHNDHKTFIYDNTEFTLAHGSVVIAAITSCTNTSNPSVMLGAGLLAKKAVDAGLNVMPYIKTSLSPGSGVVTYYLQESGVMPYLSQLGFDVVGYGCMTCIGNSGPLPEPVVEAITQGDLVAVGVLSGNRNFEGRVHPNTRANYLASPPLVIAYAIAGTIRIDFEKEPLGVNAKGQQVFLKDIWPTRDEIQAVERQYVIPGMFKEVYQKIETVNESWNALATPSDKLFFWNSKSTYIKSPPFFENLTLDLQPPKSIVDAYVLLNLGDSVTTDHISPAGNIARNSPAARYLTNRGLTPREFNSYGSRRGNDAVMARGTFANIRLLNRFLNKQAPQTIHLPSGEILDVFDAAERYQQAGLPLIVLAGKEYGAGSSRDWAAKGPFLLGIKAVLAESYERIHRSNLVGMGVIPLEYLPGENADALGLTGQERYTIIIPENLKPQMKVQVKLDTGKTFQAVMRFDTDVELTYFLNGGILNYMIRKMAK

HIF-2a target genes = assay: HIF-2a target gene expression (Glut-1 Western blot, VEGF and IGFBP3 ELISA, EGLN3 qRT-PCR); type: cell-based, human; conditions: treated 786-O cells
Procedure: ID NO: 1) and [NT] […] ID NO: 3) and [NT] ID NO: 4) for […] ID NO: 5) and [NT] ID NO: 6) for Transferrin Receptor 1 ([…] ID NO: 7) and [NT] ID NO: 8) for […] ID NO: 9) and [NT] ID NO: 10) for […] ID NO. 11) and [NT] ID NO: 12) for EGLN3. […] ID NO: 13) and [NT] ID NO: 14). […] VEGF or IGFBP3 ELISA was performed on the conditioned supernatant using Quantikine immunoassay kits (R&D Systems, DVE00 for VEGF, DGB300 for IGFBP3). […] Hypoxia stabilized HIF-2a in VHL-reconstituted WT8 cells, but treatment with compounds diminished hypoxia-induced HIF-2a expression (FIG. 3C).

Fli1-GFP fish embryo = assay: Inhibition of vascularization in fish embryo; conditions: 3microM; treated at 20 hpf, imaged 48-50 hpf
IRP1 [2] = assay: IRP1 expression in treated cells; type: cell-based, human
Source text: The inventors next tested the effect of hypoxia on the binding of IRP1 to the HIF-2a wild-type IRE. […] This is due to decreased mRNA binding, as western blots confirm that neither compound application nor hypoxia affects IRP1 protein expression. The involvement of IRP1 was further confirmed with super-shifting experiments with IRP1 antibody (FIG. 7C). No supershifted bands were observed using IRP2 antibody.
However, IRP2 contributes very little—if at all—to the total IRP bound to the HIF2a IRE (Zimmer et al., 2008).

[3] = tested on: HIF-2a (HRE-luciferase, 7H4 cells); assay: HRE-luciferase reporter assay in 786-O derived 7H4 cells; type: cell-based, human
Procedure: The screen for small molecule inhibitors was performed in the Institute for Chemical and Cellular biology, Harvard Medical School. 7SV or 7H4 cells were plated onto 384-well plates. The next day compounds were added robotically to the medium, to a final concentration of approximately 10 μM. 24 hours later, media was aspirated and Passive Lysis Buffer (Promega) and Luciferase Assay Reagent II (Promega) were added. Luciferase activity was measured with an Analyst plate reader (LJL Biosystems). All experiments were performed in duplicate and the identity of lead compounds was confirmed by mass spectroscopy
Luciferase assays were performed using the Promega's Dual-luciferase Assay Reporter System (Promega, E1910) according to the manufacturer's instructions. Counts obtained from transient transfections were normalized for co-transfected Renilla luciferase. Stable clones were normalized to medium only treated wells.
Functionally validated HRE and control SV40 luciferase reporter constructs were stably introduced into VHL-deficient 786-O cells to generate 7H4 and 7SV lines, respectively (see FIG. 8A). These lines were used to screen five commercial small molecule libraries (NCI Diversity Set, Chembridge, Maybridge, CEREP and Peakdale) and the ICCB Diversity-Oriented Synthesis (DOS) Diversity Set 2 (DDS2) and serine-derived peptidomimetic (SDP1) collections, totaling 58,000 compounds.
786-O cells were untreated (M, for medium only), mock-treated (D, for DMSO) or treated with compounds for two days before assaying for normalized luciferase activity. The resulting dose response curves are shown along with the compound structures in FIGS. 1A-1H).
To validate the connectivity map-derived prediction that PGJ2 is involved in HIF signaling, the inventors treated HRE-luciferase expressing 786-O cells (7H4) and SV40-luciferase expressing control cells (7SV) with increasing doses of PGJ2.

786-O cells = assay: Global translation (35S loading control, polysome analysis); type: cell-based, human
Procedure: DMSO-, rapamycin- or PGJ2-treated 786-O cells were harvested from 10 cm plates for each polysomal analysis. Confluent cells were harvested and lysed in 300 μL ofRSB [10 mmol/L NaCl, 10 mmol/L Tris-HCl (pH 7.4), 15 mmol/L MgCl2] containing 100 μg/mL heparin, 1.2% Triton X-100, and 0.12% deoxycholate. Nuclei were pelleted for 3 min in a microcentrifuge at 4° C. The 300-μL extract was layered over 11.5 mL of a 15% to 45% (wt/wt) sucrose gradient with a 0.5-mL cushion of 45% sucrose. The gradients were centrifuged at 37,000 rpm for 2.5 h in an SW 41 (Beckman) rotor at 4° C. After centrifugation, the A260 was continuously monitored and recorded across the gradient using a Foxy Jr. Density Gradient fractionation system and UA-6 UV/VIS Detector (ISCO, Inc.).
To determine if PGJ2 decreases translation of the HIF2a message, the inventors evaluated the synthesis rate and stability of the newly synthesized HIF2a by an ^35S-methionine pulse chase experiment on PGJ2 or vehicle only DMSO treated 786-O cells. […] Loading control is 1/1000th of the cell lysate used in the respective immunoprecipitation directly loaded into an SDS-PAGE gel.

| Structure (SMILES) | hypoxic induction of HIF-1a (HIF-1a) | angiogenic activity of renal carcinoma cell supernatant (HUVEC proliferation) (HUVEC) | effect on HIF-2a activity when IRP1 is knocked down (IRP1 [1]) | other results |
| --- | --- | --- | --- | --- |
| C/C(=C\c1ccccc1)C(=O)CCN(C)C.Cl [Compound 40, 5-(dimethylamino)-2-methyl-1-phenyl-1-penten-3-one hydrochloride] | indirectly suppress hypoxic induction of HIF-1a in multiple cell types | decrease the angiogenic activity of renal carcinoma cell supernatant |  |  |
| CC1(C)CC(=O)C=C(Sc2ccc(C#N)cc2[N+](=O)[O-])S1 [Compound 77, 4-[(2,2-dimethyl-4-oxo-3,4-dihydro-2H-thiin-6-yl)thio]-3-nitrobenzonitrile] | indirectly suppress hypoxic induction of HIF-1a in multiple cell types | decrease the angiogenic activity of renal carcinoma cell supernatant | inhibition of IRP1 is sufficient to block effect of compounds on HIF-2a activity |  |
| COC(=O)c1sccc1N/N=C(/C#N)S(C)(=O)=O [Compound 76, methyl 3-{2-[cyano(methylsulfonyl)methylene] hydrazino}thiophene-2-carboxylate] | indirectly suppress hypoxic induction of HIF-1a in multiple cell types | decrease the angiogenic activity of renal carcinoma cell supernatant | inhibition of IRP1 is sufficient to block effect of compounds on HIF-2a activity |  |
| CCCCC/C=C/C=C1/C(=O)C=C[C@@H]1C/C=C\CCCC(=O)O [PGJ2, 15-deoxy-Δ^12,14-prostaglandin J2] |  |  |  | expression of HIF-2a target genes (Glut-1, VEGF, IGFBP3, EGLN3) (HIF-2a target genes): decrease; Totals: Completed (Fli1-GFP fish embryo): 47; Totals: stalled (Fli1-GFP fish embryo): 39; completed of total, per animal (Fli1-GFP fish embryo): 6 of 17 (2×) and 17 of 18 and 9 of 17 (2×); IRP1 expression (IRP1 [2]): not affected; IC50 ([3]; 7H4 cells, luciferase measured at 48 hours, read-out: IC50app, HRE-driven luciferase activity): 5 µM; HIF2a activity at various ambient oxygen concentrations ([3]; HRE-luciferase 786-O cells, 48 hours): has the ability to repress HIF2a activity at a wide range of oxygen concentrations; global cellular translation (35S-methionine loading control) (786-O cells; 10 μM): does not globally decrease cellular translation; ribosomes actively engaged in translation (polysome analysis) (786-O cells; 24 hours): little effect on the number of ribosomes actively engaged in translation |
| COc1ccc(O)c(/C=C/C(=O)c2c(O)cc(C)oc2=O)c1 [Compound 41, 4-hydroxy-3-[3-(2-hydroxy-5-meoxyphenyl)acryloyl]-6-methyl-2H-pyran-2-one] | indirectly suppress hypoxic induction of HIF-1a in multiple cell types | decrease the angiogenic activity of renal carcinoma cell supernatant |  |  |
